Key:
MV4-11 cells = test: Oncology cell growth assay (3-day proliferation, CellTiter-Glo); type: cell-based; details: Homo sapiens, MV4-11, 72 h, AML cell line MV4-11, 72 hours, compounds grouped by IC50 range, read-out: MV4-11 IC50 (inhibition of proliferation, gIC50)
Outline: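 A 3-day proliferation test used MV4-11 cells seeded at 3000 per well with eight compound concentrations (10 μM top, 3-fold dilution) at 37° C in 5% CO2. CellTiter-Glo luminescence defined viable cell signal. A four-parameter logistic curve against DMSO and background wells gave the gIC50.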

BRD4 BD2 = target: T1, BRD4 BD2 (Homo sapiens, UniProt O60885); test: AlphaScreen binding assay, BRD4 Bromodomain 2
T1 construct: made in house
Outline: (§1)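 Compound dilution series were mixed with His-tagged BRD4 bromodomain and biotinylated tetra-acetylated H4 (1-21) peptide at pH 7.3 (BD1 and peptide at 50 nM, BD2 and peptide at 100 nM). Donor and acceptor beads were then added, and plates were equilibrated at least 1 h before reading. IC50 values were fitted with a four-parameter logistic model.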

BRD4 BD1 = target: T2, BRD4 BD1 (Homo sapiens, UniProt O60885); test: AlphaScreen binding assay, BRD4 Bromodomain 1
T2 construct: made in house
Outline: as §1

Compound | IC50 (MV4-11 cells) [nM] | IC50 (BRD4 BD2) [nM] | IC50 (BRD4 BD1) [nM]
CC(=O)N1c2ccc(-c3cnn(C[C@@H]4CCNC4)c3)cc2N(C(=O)OC(C)C)C[C@@H]1C [Example I-687] | 100 to 500 | < 50 | 100 to 1000
CC(=O)N1c2ccc(-c3cnn(CCO)c3)cc2N(c2nn(C)c3cccc(F)c23)C[C@@H]1C [Example I-190, 1-[(2S)-4-(4-fluoro-1-methyl-1H-indazol-3-yl)-6-[1-(2-hydroxyethyl)-1H-pyrazol-4-yl]-2-methyl-1,2,3,4-tetrahydroquinoxalin-1-yl]ethan-1-one] | 100 to 500 | < 50 | 100 to 1000
CC(=O)N1c2ccc(-c3cnn(C4CC4)c3)cc2N(C(=O)Oc2ccc3cccnc3c2)C[C@@H]1C [Example I-1202] | 100 to 500 | 50 to 500 | 100 to 1000
CC(=O)N1c2ccc(-c3ccc(C(=O)N4CCSCC4)cc3)cc2N(C(=O)OC(C)C)C[C@@H]1C [Example I-538] | 100 to 500 | 50 to 500 | 100 to 1000
CC(=O)N1c2ccc(-c3ccc(C(=O)N4CCC[C@@H](N)C4)cc3)cc2N(C(=O)OC(C)C)C[C@@H]1C [Example I-589] | 100 to 500 | 50 to 500 | 100 to 1000
CC(C)OC(=O)N1C[C@H](C)N(C(=O)C2CC2)c2ccc(-c3ccc(C(=O)N4CC[C@@H](O)C4)cc3)cc21 [Example I-576] | 100 to 500 | 50 to 500 | 100 to 1000
CC(=O)N1c2ccc(-c3cccc(S(N)(=O)=O)c3)cc2N(C(=O)C2CCC2)C[C@@H]1C [Example I-1040] | 100 to 500 | < 50 | 1000 to 10000
CC(=O)N1c2ccc(-c3cnn(C4CC4)c3)cc2N(C(=O)Oc2cccc3cccnc23)C[C@@H]1C [Example I-1195] | < 100 | < 50 | 100 to 1000
CC(=O)N1c2ccc(-c3cnn(Cc4nonc4C)c3)cc2N(C(=O)OC(C)C)C[C@@H]1C [Example I-677] | 100 to 500 | 50 to 500 | 100 to 1000
CC(=O)N1c2ccc(-c3cnn(C(C)(C)CO)c3)cc2N(C(=O)Oc2ccc(F)cc2)C[C@@H]1C [Example I-1020] | 100 to 500 | < 50 | 100 to 1000
CC(=O)N1c2ccc(-c3ccc(C(=O)NCCN(C)C)cc3)cc2N(C(=O)OC(C)C)C[C@@H]1C [Example I-533] | < 100 | 50 to 500 | 100 to 1000
CC(=O)N1c2ccc(-c3ccc(N4CCCS4(=O)=O)cc3)cc2N(C(=O)OC2CCC(F)(F)CC2)C[C@@H]1C [Example I-36, 4,4-difluorocyclohexyl (3S)-4-acetyl-7-[4-(1,1-dioxo-1λ^6,2-thiazolidin-2-yl)phenyl]-3-methyl-1,2,3,4-tetrahydroquinoxaline-1-carboxylate] | 100 to 500 | 50 to 500 | 1000 to 10000
CC(C)OC(=O)N1C[C@H](C)N(C(=O)C2CC2)c2ccc(-c3cnn(CC(C)(C)O)c3)cc21 [Example I-328] | 100 to 500 | 50 to 500 | 100 to 1000
CC(=O)N1c2ccc(-c3cc(Cl)cc(S(C)(=O)=O)c3)cc2N(C(=O)C2CCC2)C[C@@H]1C [Example I-1095] | > 500 | > 500 | 1000 to 10000
COC(=O)N1c2ccc(-c3cn(C)nn3)cc2N(C(=O)OC(C)C)C[C@@H]1C [Example I-490] | > 500 | 50 to 500 | 100 to 1000
CC(=O)N1c2ccc(-c3cccc(S(C)(=O)=O)c3)cc2N(C(=O)C2CC2)C[C@@H]1C [Example I-1050] | > 500 | 50 to 500 | 1000 to 10000
COC(=O)N1c2ccc(-c3cnn(C4CCNCC4)c3)cc2N(C(=O)OC(C)C)C[C@@H]1C [Example I-355] | 100 to 500 | 50 to 500 | 100 to 1000
CC(C)OC(=O)N1C[C@H](C)N(C(=O)C2CC2)c2ccc(-c3cnn(C4CC4)c3)cc21 [Example I-378] | 100 to 500 | 50 to 500 | 100 to 1000
COC(=O)N1c2ccc(-c3cnn(CC4CCS(=O)(=O)CC4)c3)cc2N(C(=O)OC(C)C)C[C@@H]1C [Example I-624] | > 500 | 50 to 500 | 100 to 1000
CCS(=O)(=O)Nc1cccc(-c2ccc3c(c2)N(C(=O)C2CCC2)C[C@H](C)N3C(C)=O)c1 [Example I-1055] | > 500 | 50 to 500 | 1000 to 10000
COCCn1cc(-c2ccc3c(c2)N(C(=O)OC(C)C)C[C@H](C)N3C(C)=O)cn1 [Example I-17, (S)-isopropyl 4-acetyl-7-(1-(2-methoxyethyl)-1H-pyrazol-4-yl)-3-methyl-3,4-dihydroquinoxaline-1(2H)-carboxylate] | 100 to 500 | < 50 | 100 to 1000
CC(=O)N1c2ccc(-c3ccc(S(C)(=O)=O)cc3)cc2N(C(=O)Oc2cccc3ccccc23)C[C@@H]1C [Example I-251] | > 500 | 50 to 500 | 1000 to 10000

Compound | IC50 (MV4-11 cells) [nM] | IC50 (BRD4 BD2) [nM] | IC50 (BRD4 BD1) [nM]
CC(=O)N1c2ccc(-c3cccc(NS(=O)(=O)c4ccc(C)cc4)c3)cc2N(C(=O)c2ccco2)C[C@@H]1C [Example I-859] | 100 to 500 | < 50 | 100 to 1000
CC(=O)N1c2ccc(-c3ccc(C(=O)N4CCNCC4)cc3)cc2N(C(=O)C2CC2)C[C@@H]1C [Example I-437] | 100 to 500 | 50 to 500 | 100 to 1000
CC(=O)N1c2ccc(-c3cnn(C4COC4)c3)cc2N(C(=O)OCC2CCC2)C[C@@H]1C [Example I-60, (S)-cyclobutylmethyl 4-acetyl-3-methyl-7-(1-(oxetan-3-yl)-1H-pyrazol-4-yl)-3,4-dihydroquinoxaline-1(2H)-carboxylate] | 100 to 500 | 50 to 500 | 100 to 1000
CC(=O)N1c2ccc(-c3ccc(C(=O)N4CCCCC4)cc3)cc2N(C(=O)OC(C)C)C[C@@H]1C [Example I-537] | 100 to 500 | 50 to 500 | 100 to 1000
CC(=O)N1c2ccc(-c3cnn(Cc4ccccc4)c3)cc2N(C(=O)c2ccco2)C[C@@H]1C [Example I-409] | < 100 | < 50 | 100 to 1000
CCOC(=O)N1C[C@H](C)N(C(C)=O)c2ccc(-c3cn[nH]c3)cc21 [Example I-19, (S)-ethyl 4-acetyl-3-methyl-7-(1H-pyrazol-4-yl)-3,4-dihydroquinoxaline-1(2H)-carboxylate] | 100 to 500 | 50 to 500 | 1000 to 10000
CC(C)OC(=O)N1C[C@H](C)N(C(=O)C2CC2)c2ccc(-c3cnn(CCS(C)(=O)=O)c3)cc21 [Example I-309] | > 500 | 50 to 500 | 100 to 1000
CC(=O)N1c2ccc(-c3ccc4c(c3)CCCN4S(C)(=O)=O)cc2N(C(=O)C2CCC2)C[C@@H]1C [Example I-1158] | > 500 | 50 to 500 | 100 to 1000
COC(=O)N1c2ccc(-c3cnn(CCN4CCOCC4)c3)cc2N(C(=O)OC(C)C)C[C@@H]1C [Example I-321] | 100 to 500 | 50 to 500 | 100 to 1000
CCS(=O)(=O)Nc1cccc(-c2ccc3c(c2)N(C(=O)OC2CCCCC2)C[C@H](C)N3C(C)=O)c1 [Example I-1227] | 100 to 500 | 50 to 500 | 100 to 1000
CC(=O)N1c2ccc(-c3cn(C)nc3C)cc2N(C(=O)OC(C)C)C[C@@H]1C [Example I-338] | > 500 | 50 to 500 | 100 to 1000
CC(=O)N1c2ccc(-c3cnn(C4CC4)c3)cc2N(C(=O)OC2CCC2)C[C@@H]1C [Example I-1003] | < 100 | 50 to 500 | < 100
CC(=O)N1c2ccc(-c3ccc(S(C)(=O)=O)cc3)cc2N(C(=O)OC(C)C)C[C@@H]1C [Example I-294] | 100 to 500 | < 50 | 100 to 1000
CC(=O)N1c2ccc(-c3ccc(NS(C)(=O)=O)cc3)cc2N(C(=O)c2ccco2)C[C@@H]1C [Example I-279] | < 100 | < 50 | 100 to 1000
CC(=O)N1c2ccc(-c3cccc(NS(C)(=O)=O)c3)cc2N(C(=O)C2CCC2)C[C@@H]1C [Example I-1044] | > 500 | 50 to 500 | 1000 to 10000
CC(=O)N1c2ccc(-c3ccc(S(=O)(=O)CC4CC4)cc3)cc2N(C(=O)OC2CCOCC2)C[C@@H]1C [Example I-1238] | > 500 | 50 to 500 | 100 to 1000
COC(=O)N1c2ccc(-c3cnn(C4CC4)c3)cc2N(C(=O)OC(C)C)C[C@@H]1C [Example I-43, (S)-4-isopropyl 1-methyl 6-(1-cyclopropyl-1H-pyrazol-4-yl)-2-methyl-2,3-dihydroquinoxaline-1,4-dicarboxylate] | > 500 | 50 to 500 | 100 to 1000
CC(=O)N1c2ccc(-c3ccc(S(=O)(=O)N(C)C)cc3)cc2N(C(=O)c2ccco2)C[C@@H]1C [Example I-277] | 100 to 500 | < 50 | 1000 to 10000
CC(=O)N1c2ccc(-c3ccc(C(=O)NCCN)cc3)cc2N(C(=O)c2ccco2)C[C@@H]1C [Example I-426] | 100 to 500 | < 50 | 1000 to 10000
CC(C)OC(=O)N1C[C@H](C)N(C(=O)C2CC2)c2ccc(-c3cnn(CC4CCOCC4)c3)cc21 [Example I-623] | 100 to 500 | 50 to 500 | 100 to 1000
CCOC(=O)N1C[C@H](C)N(C(C)=O)c2ccc(-c3cccc(S(N)(=O)=O)c3)cc21 [Example I-1041] | 100 to 500 | 50 to 500 | 1000 to 10000

Source: US10703764B2, “Benzopiperazine compositions as BET bromodomain inhibitors” (FORMA Therapeutics, Inc., priority 2013, dated 2020)
